Molecules are shown by their SMILES. Like-named read-outs stand apart in the source and are kept apart here. Starred links: 1 amine or outer side, 2 acyl side, 3 side chain; linkers in the order of their positions; H or OH if unused. Non-standard residues stand in square brackets, D forms with d. Residues, ends and D or L forms follow the SMILES beside them. Groups on a side chain read outwards from the residue. *: point of attachment. C20 diacid = O=C(O)CCCCCCCCCCCCCCCCCCC(=O)*; γGlu = O=C(O)[C@H](CCC(=O)[*:2])N[*:1]; NMeI = CC[C@H](C)[C@H](NC)C(=O)O; Nle = CCCC[C@H](N)C(=O)O; AEEA = NCCOCCOCC(=O)O; Aib = CC(C)(N)C(=O)O Bounds are passed on as bounds.

Data set [1] in a line: Thioflavin T fibril formation assay of purified peptides. It counts as physicochemical. Particulars: pH 7.5, ThT assay. The method, then: Thioflavin T fibril formation assay: Peptides were dissolved as 267 µM in 50 mM phosphate buffer pH 7.5 for 2 h at room temperature on a rocking table. The samples were then divided into three replicates of 80 µl/well and mixed with 2 µl/well Thioflavin T (ThT)to a final concentration of 4 µM ThT in a black 384 well microplate with a clear bottom (Greiner #781096). The plate was inserted in a CLARIOstar Plus microplate reader (BMG Labtech) and fibril formation was measured as an increase in fluorescence emission at 480 nm (excitation at 450 nm) during 96 h at 40°C with cycles of 5 min rest and 5 min linearshaking at700 rpm.
Compounds were dissolved to 200 µM (ca 1.0 mg/ml) in 50 mM phosphate buffer with preparation and ThT assay performed as described in the "General procedure for determination of fibril formation of peptides." above. Furthermore, samples were adjusted to pH values as indicated below. Additional co-formulations of compounds with semaglutide were prepared by dissolving compounds to 200 µM in commercially available semaglutide drug product (Ozempic®); these co-formulations were adjusted to pH 7.4.

For data set [2] the following is noted: pH 7.5.
The target of another data set is T1, hCRHR2 (Homo sapiens, UniProt Q13324).
T1 sequence (Q13324 1-411): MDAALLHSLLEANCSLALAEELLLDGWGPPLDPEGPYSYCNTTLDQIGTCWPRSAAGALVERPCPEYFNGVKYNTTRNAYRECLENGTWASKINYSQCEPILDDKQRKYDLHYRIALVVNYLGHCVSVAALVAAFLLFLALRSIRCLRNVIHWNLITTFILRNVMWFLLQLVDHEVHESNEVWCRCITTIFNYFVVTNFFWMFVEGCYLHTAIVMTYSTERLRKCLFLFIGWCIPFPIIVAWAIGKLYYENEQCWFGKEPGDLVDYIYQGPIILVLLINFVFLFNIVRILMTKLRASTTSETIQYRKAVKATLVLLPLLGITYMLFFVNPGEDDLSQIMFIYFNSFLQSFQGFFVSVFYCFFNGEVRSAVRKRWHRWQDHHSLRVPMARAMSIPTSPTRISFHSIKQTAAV
Briefly: HTRF cAMP assay, determination of hCRHR2 potency (peptide libraries 5 conc., purified peptides 11 conc.). The data set is classed as cell-based. The procedure, abridged:
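CHO-K1 cells stably expressing human CRHR2, thawed from frozen stocks just before use and run in suspension; cAMP measured by competitive HTRF immunoassay (cryptate anti-cAMP, d2-cAMP). Agonist peptides tested at 5 (libraries) or 11 (purified) concentrations; EC50 from sigmoid variable-slope nonlinear regression.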

In a further data set the target is T2, hCRHR1 (Homo sapiens, UniProt P34998).
T2 sequence (P34998 24-415): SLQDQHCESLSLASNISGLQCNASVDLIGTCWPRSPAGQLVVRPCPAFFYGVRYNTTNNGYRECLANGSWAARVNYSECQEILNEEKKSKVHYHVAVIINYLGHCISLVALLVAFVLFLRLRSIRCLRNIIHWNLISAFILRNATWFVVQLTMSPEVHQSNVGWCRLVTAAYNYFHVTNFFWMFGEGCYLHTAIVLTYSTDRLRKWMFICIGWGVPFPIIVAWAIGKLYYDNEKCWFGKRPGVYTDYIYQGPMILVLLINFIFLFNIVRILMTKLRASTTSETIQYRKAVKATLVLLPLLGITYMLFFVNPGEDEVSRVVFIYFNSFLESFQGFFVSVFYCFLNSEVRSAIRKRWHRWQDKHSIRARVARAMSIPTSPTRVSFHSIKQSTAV
Briefly: HTRF cAMP assay, determination of hCRHR1 potency (peptide libraries 5 conc., purified peptides 11 conc.). It counts as cell-based. The procedure, abridged: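 CHO-K1 cells stably expressing human CRHR1, thawed from frozen stocks just before use, were stimulated in suspension with agonist peptides. cAMP was measured by HTRF competitive immunoassay (cryptate anti-cAMP antibody vs d2-cAMP).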

Where [3] appears, read: Table 3, matched molecular pairs X^38 L vs Nle, peptide library of Example 4, read-out: hCRHR2 pEC50 (converted).
Where [4] appears, read: Table 3, matched molecular pairs X^38 L vs Nle, peptide library of Example 4, read-out: hCRHR1 pEC50 (converted).

With `CC[C@H](C)[C@H](N)C(=O)N[C@H](C(=O)N[C@@H](CC(C)C)C(=O)N[C@@H](CO)C(=O)N[C@@H](CC(C)C)C(=O)N[C@@H](CC(=O)O)C(=O)N[C@H](C(=O)N1CCC[C@H]1C(=O)N[C@H](C(=O)NCC(=O)N[C@@H](CC(C)C)C(=O)N[C@@H](CC(C)C)C(=O)N[C@@H](CCC(N)=O)C(=O)N[C@H](C(=O)N[C@@H](CC(C)C)C(=O)N[C@@H](CC(C)C)C(=O)N[C@@H](CCC(=O)O)C(=O)N[C@@H](CCC(N)=O)C(=O)N[C@@H](C)C(=O)N[C@@H](CCCNC(=N)N)C(=O)N[C@@H](C)C(=O)N[C@@H](CCCNC(=N)N)C(=O)N[C@@H](C)C(=O)N[C@@H](C)C(=O)N[C@@H](CCCNC(=N)N)C(=O)N[C@@H](CCC(=O)O)C(=O)N[C@@H](CCC(N)=O)C(=O)N[C@@H](C)C(=O)N[C@@H](CCCCNC(=O)COCCOCCNC(=O)COCCOCCNC(=O)CC[C@H](NC(=O)CC[C@H](NC(=O)CCCCCCCCCCCCCCCCCCC(=O)O)C(=O)O)C(=O)O)C(=O)N[C@H](C(=O)N[C@@H](CC(N)=O)C(=O)N[C@@H](C)C(=O)N[C@@H](CCCNC(=N)N)C(=O)N[C@H](C(=O)N[C@@H](CC(C)C)C(=O)N[C@@H](C)C(=O)N[C@@H](CCCNC(=N)N)C(=O)N[C@H](C(N)=O)C(C)C)[C@@H](C)CC)[C@@H](C)O)[C@@H](C)CC)[C@@H](C)CC)C(C)C)C(C)C` [SEQ ID NO: 2] (H-IVLSLDVPIGLLQILLEQARARAAREQAK([AEEA-AEEA-γGlu-γGlu-C20 diacid])TNARILARV-NH2), the “Fibrillation (pH 7.5)” value in data set [1] is “No”. Also, the “Solubility pH 7.5, target conc. =5 mg/mL (measured mg/mL)” value in data set [2] is 0.016 mg/mL. For the same compound, on hCRHR2 (hCRHR1-EC50/hCRHR2-EC50), the “Selectivity ratio (hCRHR1/ hCRHR2)” value is recorded as over 2778. Also, the EC50 on hCRHR2 (purified peptides, CHO-K1 cells stably expressing hCRHR2, cAMP HTRF, read-out: hCRHR2 EC50) is 1.8 nM; at hCRHR1 (purified peptides, CHO-K1 cells stably expressing hCRHR1, cAMP HTRF, read-out: hCRHR1 EC50), over 5000 nM.

`CCCC[C@H](NC(=O)[C@@H](NC(=O)[C@H](CCC(=O)O)NC(=O)[C@H](C)NC(=O)[C@H](CC(N)=O)NC(=O)[C@@H](NC(=O)[C@H](CCCCNC(=O)COCCOCCNC(=O)COCCOCCNC(=O)CC[C@H](NC(=O)CC[C@H](NC(=O)CCCCCCCCCCCCCCCCCCC(=O)O)C(=O)O)C(=O)O)NC(=O)[C@H](C)NC(=O)[C@H](CCC(=O)O)NC(=O)[C@H](CCC(=O)O)NC(=O)[C@H](CCCNC(=N)N)NC(=O)[C@H](CCC(N)=O)NC(=O)[C@H](C)NC(=O)[C@H](CCCNC(=N)N)NC(=O)[C@H](C)NC(=O)[C@H](CCCNC(=N)N)NC(=O)[C@H](C)NC(=O)[C@H](CCC(N)=O)NC(=O)[C@H](CCC(=O)O)NC(=O)[C@H](CC(C)C)NC(=O)[C@H](CC(C)C)NC(=O)[C@@H](NC(=O)[C@H](CCC(N)=O)NC(=O)[C@H](CC(C)C)NC(=O)[C@H](CC(C)C)NC(=O)CNC(=O)[C@@H](NC(=O)[C@@H]1CCCN1C(=O)[C@@H](NC(=O)[C@H](CC(=O)O)NC(=O)[C@H](CC(C)C)NC(=O)[C@H](CO)NC(=O)[C@H](CC(C)C)NC(=O)[C@@H](NC(=O)[C@@H](N)[C@@H](C)CC)C(C)C)C(C)C)[C@@H](C)CC)[C@@H](C)CC)[C@@H](C)O)[C@@H](C)CC)C(=O)N[C@@H](C)C(=O)N[C@@H](CCC(=O)O)C(=O)N[C@H](C(N)=O)C(C)C` [SEQ ID NO: 34] (H-IVLSLDVPIGLLQILLEQARARAQREEAK([AEEA-AEEA-γGlu-γGlu-C20 diacid])TNAEI[Nle]AEV-NH2): the figures for the EC50 on hCRHR2 (setting [3]) and at hCRHR1 (setting [4]) were 0.251 nM and 100000 nM, respectively.

As for `CCCC[C@H](NC(=O)[C@@H](NC(=O)[C@H](CCC(=O)O)NC(=O)[C@H](C)NC(=O)[C@H](CC(N)=O)NC(=O)C(C)(C)NC(=O)[C@H](CCCCNC(=O)COCCOCCNC(=O)COCCOCCNC(=O)CC[C@H](NC(=O)CC[C@H](NC(=O)CCCCCCCCCCCCCCCCCCC(=O)O)C(=O)O)C(=O)O)NC(=O)[C@H](C)NC(=O)[C@H](CCC(N)=O)NC(=O)[C@H](CCC(=O)O)NC(=O)[C@H](CCCNC(=N)N)NC(=O)[C@H](C)NC(=O)[C@H](C)NC(=O)[C@H](CCCNC(=N)N)NC(=O)[C@H](C)NC(=O)[C@H](CCCNC(=N)N)NC(=O)[C@H](C)NC(=O)[C@H](CCC(N)=O)NC(=O)[C@H](Cc1ccccc1)NC(=O)[C@H](CC(C)C)NC(=O)[C@H](CC(C)C)NC(=O)[C@@H](NC(=O)[C@H](CCC(N)=O)NC(=O)[C@H](CC(C)C)NC(=O)[C@H](CC(C)C)NC(=O)CNC(=O)[C@@H](NC(=O)[C@@H]1CCCN1C(=O)[C@@H](NC(=O)[C@H](CC(=O)O)NC(=O)[C@H](CC(C)C)NC(=O)[C@H](CO)NC(=O)[C@H](CC(C)C)NC(=O)[C@@H](NC(=O)[C@@H](NC)[C@@H](C)CC)C(C)C)C(C)C)[C@@H](C)CC)[C@@H](C)CC)[C@@H](C)CC)C(=O)N[C@@H](C)C(=O)N[C@@H](CCC(=O)O)C(=O)N[C@H](C(N)=O)C(C)C` [compound 128] (H-[NMeI]VLSLDVPIGLLQILLFQARARAAREQAK([AEEA-AEEA-γGlu-γGlu-C20 diacid])[Aib]NAEI[Nle]AEV-NH2), the EC50 was 0.00501 nM at hCRHR2 (Table 4, library peptides having X^38 = Nle, read-out: hCRHR2 pEC50 (converted)) and 100000 nM on hCRHR1 (Table 4, library peptides having X^38 = Nle, read-out: hCRHR1 pEC50 (converted)).

Regarding `CC[C@H](C)[C@H](N)C(=O)N[C@H](C(=O)N[C@@H](CC(C)C)C(=O)N[C@@H](CO)C(=O)N[C@@H](CC(C)C)C(=O)N[C@@H](CC(=O)O)C(=O)N[C@H](C(=O)N1CCC[C@H]1C(=O)N[C@H](C(=O)NCC(=O)N[C@@H](CC(C)C)C(=O)N[C@@H](CC(C)C)C(=O)N[C@@H](CCC(N)=O)C(=O)N[C@H](C(=O)N[C@@H](CC(C)C)C(=O)N[C@@H](CC(C)C)C(=O)N[C@@H](CCC(=O)O)C(=O)N[C@@H](CCC(N)=O)C(=O)N[C@@H](C)C(=O)N[C@@H](CCCNC(=N)N)C(=O)N[C@@H](C)C(=O)N[C@@H](CCC(N)=O)C(=O)N[C@@H](C)C(=O)N[C@@H](C)C(=O)N[C@@H](CCCNC(=N)N)C(=O)N[C@@H](CCC(=O)O)C(=O)N[C@@H](CCC(N)=O)C(=O)N[C@@H](C)C(=O)N[C@@H](CCCCNC(=O)COCCOCCNC(=O)COCCOCCNC(=O)CC[C@H](NC(=O)CC[C@H](NC(=O)CCCCCCCCCCCCCCCCCCC(=O)O)C(=O)O)C(=O)O)C(=O)N[C@H](C(=O)N[C@@H](CC(N)=O)C(=O)N[C@@H](C)C(=O)N[C@@H](CCC(=O)O)C(=O)N[C@H](C(=O)N[C@@H](CC(C)C)C(=O)N[C@@H](C)C(=O)N[C@@H](CCC(=O)O)C(=O)N[C@H](C(N)=O)[C@@H](C)CC)[C@@H](C)CC)[C@@H](C)O)[C@@H](C)CC)[C@@H](C)CC)C(C)C)C(C)C` [SEQ ID NO: 43] (H-IVLSLDVPIGLLQILLEQARAQAAREQAK([AEEA-AEEA-γGlu-γGlu-C20 diacid])TNAEILAEI-NH2), the results for the EC50 at hCRHR2 (setting [3]) and at hCRHR1 (setting [4]) were 0.501 nM and 63100 nM, respectively.

(Values after patent EP4810052A2, “HCRHR2 SELECTIVE POLYPEPTIDES” (Gubra A/S, priority 2023, dated 2026).)
